Experimental data published in PubChem BioAssay (NCI).
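Results reflect a 48-hour exposure of cells in 96-well plates to compound at five concentrations. TGI marks complete inhibition of growth.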

Columns and labels:
Test in all cases: inhibition of tumour cell growth, NCI panel, 48 h
CCRF-CEM leukemia = system: CCRF-CEM leukemia
HT29 colon = system: HT29 colon
LOX IMVI melanoma = system: LOX IMVI melanoma
MALME-3M melanoma = system: MALME-3M melanoma
NCI-H23 lung = system: NCI-H23 lung
NCI/ADR-RES ovarian = system: NCI/ADR-RES ovarian
OVCAR-8 ovarian = system: OVCAR-8 ovarian
PC-3 prostate = system: PC-3 prostate
SN12C renal = system: SN12C renal
UO-31 renal = system: UO-31 renal

Row | SMILES | TGI (CCRF-CEM leukemia) | TGI (HT29 colon) | TGI (LOX IMVI melanoma) | TGI (MALME-3M melanoma) | TGI (NCI-H23 lung) | TGI (NCI/ADR-RES ovarian) | TGI (OVCAR-8 ovarian) | TGI (PC-3 prostate) | TGI (SN12C renal) | TGI (UO-31 renal)
1 | CCOc1cc(NC(C)=O)ccc1C(=O)NN1C(=O)C(Cl)C1c1ccco1 (centres undefined) | 49.1 µM | 38.8 µM | 13.1 µM | 24.6 µM | 39 µM | > 100 µM | > 100 µM | 32.3 µM | 32.8 µM | 11.5 µM
2 | Cc1ccc(N=Nc2c(O)c(C(=O)Nc3ccccc3)cc3ccccc23)c([N+](=O)[O-])c1 | > 100 µM | > 100 µM | > 100 µM | > 100 µM | > 100 µM | > 100 µM | > 100 µM | > 100 µM | > 100 µM | > 100 µM
3 | CC(C)(CC(O)C#N)/[N+]([O-])=[N+](\[O-])C(C)(C)CC(O)C#N (centres undefined) |  | > 100 µM | 42.7 µM | 54.2 µM | 66.8 µM | > 100 µM | > 100 µM | > 100 µM | 45.3 µM | 98.1 µM
4 | Cc1ccc(/C=C2\CCCC(CN3CCCCC3)C2=O)cc1 (centres undefined) | 3.03 µM | 3.28 µM | 3.29 µM | 5.98 µM | 4.86 µM | 42.5 µM | 6.79 µM | 5.74 µM | 8.4 µM | 3.58 µM
5 | COc1cccc(N2C(=O)C3c4[nH]c5ccc(C)cc5c4C4CCC(C(C)(C)C)CC4C3C2=O)c1 (centres undefined) | 7.57 µM | > 10 µM | 3.98 µM | > 10 µM | 5.74 µM | 9.27 µM | 5.85 µM | > 10 µM | > 10 µM | > 10 µM
6 | COc1cc(/C=C(/C#N)C(N)=O)ccc1O | > 100 µM | > 100 µM | > 100 µM | > 100 µM | > 100 µM | > 100 µM | > 100 µM |  | > 100 µM | > 100 µM
7 | CC(NC(C)(C)C)C(=O)c1cccc(Cl)c1 (centres undefined) | > 100 µM | > 100 µM | > 100 µM | > 100 µM | > 100 µM |  | > 100 µM |  | > 100 µM | 
8 | COc1cccc(NC(=O)C(C#N)=C(SC)SC)c1 | > 100 µM | > 100 µM | > 100 µM | > 100 µM |  | > 100 µM | > 100 µM | > 100 µM | > 100 µM | 
9 | COc1ccc2oc(=N)c(C(=O)Nc3ccccn3)cc2c1 | > 100 µM | > 100 µM | > 100 µM | > 100 µM | > 100 µM | > 100 µM | > 100 µM | > 100 µM | > 100 µM | 
10 | Fc1ccccc1C1SCc2nc3cc4ccccc4cc3n21 (centres undefined) | > 100 µM | > 100 µM |  | > 100 µM | > 100 µM | > 100 µM | > 100 µM | > 100 µM | > 100 µM | > 100 µM
11 | O=c1onc2c3ccccc3ncn12 | > 100 µM | > 100 µM | > 100 µM |  | > 100 µM | > 100 µM | > 100 µM | > 100 µM | > 100 µM | > 100 µM
12 | COC(=O)c1c(OC(C)=O)ccc2c1c1c(OC(C)=O)c3ccccc3c(OC(C)=O)c1n2Cc1ccccc1 | 45 µM | 31.5 µM |  | 22.6 µM | 18.3 µM | 46.6 µM | > 50 µM | 32 µM | > 50 µM | 24.7 µM
13 | CCNC1=C(NC(=O)CC)C(=O)c2ccccc2C1=O | > 100 µM | > 100 µM |  | 60.1 µM | > 100 µM | > 100 µM | > 100 µM | > 100 µM | > 100 µM | 
14 | O=C(CC(=O)Nc1ccccc1)N/N=C/c1cc(N=Nc2ccc(Br)cc2)ccc1O | 5.3 µM |  | > 10 µM | > 10 µM | > 10 µM | > 10 µM | > 10 µM |  | > 10 µM | 7.93 µM
15 | CC1=NN(C(=O)CSc2nc3ccc(I)cc3c(=O)n2Cc2ccccc2)C(=O)C1 | > 100 µM | > 100 µM | > 100 µM |  | 43.1 µM | 58.3 µM | > 100 µM | 49.7 µM | > 100 µM | 
16 | Brc1c(C#CCC2CCCCC2)ccc(C#CCC2CCCCC2)c1Br | > 100 µM |  | > 100 µM | > 100 µM |  | > 100 µM | > 100 µM | > 100 µM | > 100 µM | 
17 | COc1ccc(N=C2C(=Nc3ccc(OC)cc3)N(c3ccccc3)C(=S)N2N=C=C2Sc3ccccc3N2C)cc1 |  | > 100 µM |  | > 100 µM | > 100 µM | > 100 µM | > 100 µM | > 100 µM | > 100 µM | > 100 µM
18 | CC1(O)OC(=O)C2=C1CCC1C2CCC2(C)C(O)CCC12 (centres undefined) | > 100 µM | > 100 µM | > 100 µM | > 100 µM | > 100 µM | > 100 µM | > 100 µM |  | > 100 µM | > 100 µM
19 | CC(C)(C)OC(=O)NCCC1CN(C(=O)c2ccccc2)c2ccccc21 (centres undefined) |  | 63.7 µM |  | 80.9 µM | 88.8 µM | 57.5 µM | 67.8 µM | > 100 µM |  | 76.1 µM
20 | Nc1ccc(C(=O)NN2C(=O)C(Cl)C2c2ccccc2)cc1 (centres undefined) | > 100 µM | > 100 µM | > 100 µM | > 100 µM | > 100 µM |  | > 100 µM |  | > 100 µM | > 100 µM
21 | CCN(CC)Cc1sc2nc3ccccc3n2c1-c1ccc(OC)cc1 | 67.6 µM | 40.7 µM | > 100 µM | > 100 µM | > 100 µM | 90.8 µM | > 100 µM | > 100 µM |  | > 100 µM
22 | COc1ccc(CSc2ccccc2Cn2cccc2)cc1OC | > 100 µM | > 100 µM | > 100 µM | > 100 µM | > 100 µM | > 100 µM | > 100 µM |  | > 100 µM | > 100 µM
23 | CC[C@@H](/C=C\CCC(=O)C[C@H](O)CCC=C(C)C)O[Si](C(C)C)(C(C)C)C(C)C | > 100 µM | > 100 µM | > 100 µM |  | > 100 µM | > 100 µM | > 100 µM | > 100 µM | > 100 µM | > 100 µM
